Measured values taken from patent US11841369B2, “Method for improving quality of therapeutic cell through real-time glutathione measurement” (CELL2IN, INC., priority 2017, dated 2023).

Columns and labels:
[1] = test system: hUC-MSCs; test: FreSH-Tracer-based glutathione regeneration capacity (GRC) after diamide; parameters: species or system human; conditions: hUC-MSCs subcultured three times with AA2G 250 μg/mL, low concentration of diamide, vs naive cell group
Procedure: (§1) In addition, GH is calculated as the coefficient of variation or robust coefficient of variation of cellular FR. GRC refers to a value obtained by real-time monitoring of FR after living cells are treated with an oxidizing agent, as calculated by dividing a value obtained by subtracting AUC of a group treated with 0.1-100 mM N-ethylmaleimide (NEM) from FR AUC of an oxidizing agent (diamide, H2O2, etc.)-treated group by a value obtained by subtracting the AUC of NEM-treated group from AUC of the untreated control, and multiplying the resulting value by 100. The FR of the NEM-treated group is a value for increasing the sensitivity of a GRC value by treating it as the blank value of the FR of the cells of interest. […] To remove the MitoFreSH-Tracer from the medium before measurement, the medium was exchanged with fresh 10 mM HEPES-containing HBSS, and a fluorescence image was obtained using a confocal imaging system, Operetta. By comparing GSH levels quantified from control cells not treated with RSL3 or control cells before treated with RSL3, the distribution of GSH expression-changed cells was calculated. Based on the point where the distribution histogram is divided into two peaks, the cells were divided into GSH^High cells (right peak) and GSH^Low cells (left peak), and then a ratio of corresponding cells was expressed as a percentage (%). […]

[2] = test system: hUC-MSCs; test: Oxidative stress resistance capacity (ORC) analysis with RSL3; format: cell-based, human; conditions: hUC-MSCs subcultured three times with AA2G 250 μg/mL, vs naive cell group (NC)
Procedure: as §1

O=C1O[C@H]([C@@H](O)CO)C(O)=C1O[C@H]1O[C@H](CO)[C@@H](O)[C@H](O)[C@H]1O [AA2G, ascorbic acid 2-glucoside]
FreSH-Tracer-based GRC [1]: increased
FreSH-Tracer-based ORC (GSH^High cells) [2]: higher
